Experimental data: article PMC10239048, “Synthesis and antioxidant, antimicrobial, and antiviral activity of some pyrazole-based heterocycles using a 2(3H)-furanone derivative” (Journal of the Iranian Chemical Society, 2023)
Converted amounts (≈) assume the structure as drawn.

What was measured:
[1] = Total antioxidant capacity (TAC), phosphomolybdenum method; conditions: for Total antioxidant capacity: 500 µg/ml in methanol, 95 °C 90 min, 695 nm, means ± S.D., n = 3
[2] = test system: avian influenza HPAI-H5N1 (AIV); design: species or system avian influenza virus HPAI-H5N1; conditions: in vivo
[3] = test system: avian influenza HPAI-H5N1 (AIV); design: species or system avian influenza virus HPAI-H5N1; conditions: in vivo; remark: listed apart in the source
[4] = test system: Haemophilus (Gram –ve); assay: Agar/disk diffusion inhibition zone, Haemophilus; format: cell-based; conditions: diffusion method
[5] = test system: Staphylococcus aureus; assay: Agar/disk diffusion inhibition zone, Staphylococcus aureus; format: cell-based; conditions: diffusion method
[6] = test system: Candida albicans; assay: Agar diffusion antifungal activity, Candida albicans; format: cell-based; conditions: diffusion method
[7] = test system: Haemophilus (Gram –ve); assay: MIC measurement by serial dilution, Haemophilus; format: cell-based; conditions: read-out: MIC Haemophilus (Gram –ve)
[8] = test system: Staphylococcus aureus; assay: MIC measurement by serial dilution, Staphylococcus aureus; format: cell-based; conditions: 37 °C, 24–72 h, read-out: MIC Staph (Gram + ve)
[9] = test system: SPF chicks; assay: Immune-boosting properties in vaccinated SPF chicks (humeral response); format: in vivo, chicken; conditions: SPF chicks; vaccine-only group 7 log2
[10] = test system: embryonated chicken SPF eggs; conditions: in vivo

CC(=O)NN1C(=O)C(=Cc2c(C)nn(-c3ccccc3)c2Cl)C=C1c1ccc(C)cc1 [Compound 12, N-(3-((5-Chloro-3-methyl-1-phenyl-1H-pyrazol-4-yl)methylene)-2-oxo-5-(p-tolyl)-2,3-dihydro-1H-pyrrol-1-yl)acetamide]
Antioxidant activity (in words) [1]: Moderate antioxidant activity
Total antioxidant capacity [1]: 163.0 ± 1.75 mg AAE/g dry compound
melting point: 114 to 116 °C

Cc1ccc(C2=CC(=Cc3c(C)nn(-c4ccccc4)c3Cl)C(=O)N2Cc2ccccc2)cc1
melting point: 152 to 154 °C

Cc1ccc(C2=CC(=Cc3c(C)nn(-c4ccccc4)c3Cl)C(=O)N2N=Cc2ccc(Cl)cc2)cc1 [Compound 15, 3-((5-Chloro-3-methyl-1-phenyl-1H-pyrazol-4-yl)methylene)-1-((4-chlorobenzylidene)-amino)-5-(p-tolyl)-1,3-dihydro-2H-pyrrol-2-one]
Total antioxidant capacity [1]: 262.27 ± 2.51 mg AAE/g dry compound
TI [2]: 55.5
Antiviral activity against avian influenza virus (in words) [3]: little antiviral activity
Virus titer with compound [3]: 10^5
Inhibition diameter Haemophilus (Gram –ve) [4]: 7 mm
Inhibition diameter Staph (Gram + ve) [5]: 6 mm
Candida albicans (diameter of inhibition zone) [6]: 6 mm
MIC [7]: 16 µg/mL (≈ 31.2 µM)
MIC [8]: 18 µg/mL
Humeral response of vaccinated groups which received each tested compound separately [9]: 6.6 log2
CC50 [10]: 500 > µl/ egg
